From patent US8173144B2, “Administration of urea compounds for combating signs of cutaneous aging” (L'Oreal, priority 2004, dated 2012)

Test system: acid proteases of the SC (stratum corneum)
Assay: Activation of acid proteases of the stratum corneum (Enzchek fluorimetry, Bodipy FL casein substrate)
Type: biochemical
Experimental: The property of activating certain acid proteases of the SC (stratum corneum) is evaluated. This activity is measured by virtue of a quantitative determination by fluorimetry using the Enzchek kit (Molecular Probes). This protocol uses a Bodipy FL casein substrate which releases fluorescence when it is hydrolyzed. The fluorescence released is directly proportional to the protease activity. It is read directly in a 96-well plate with a spectrofluorimeter at 750 V at 485 nm in excitation and 535 nm in emission.
The molecules are prepared at 0, 1, 2 and 4M in a 0.1M; pH 5.0; acetate buffer.
An enzyme extract is prepared from acetone powders.
2 ml of PBS buffer+0.1% of Triton X100 are brought into contact for 1 h in crushed ice with 200 mg of stratum corneum acetone powders. The mixture is subsequently ground in a Potter homogenizer and then centrifuged at 15 000 g for 10 min at 4° C. The supernatant is collected. The Enzchek substrate, diluted to 1/200, is incorporated in each solution comprising the molecules. The assays are repeated three times.
The reaction mixture is prepared directly in a white plate.
10 μl of enzyme extract are added to 200 μl of solution comprising the substrate at 0, 1, 2 or 4M. The readings are carried out at t0, t 2h, t 16h and t 24h.

[1] = 1 and 2M in 0.1M acetate buffer pH 5.0, readings t0, t 2h, t 16h, t 24h

With NC(=O)NCCO [N-(2-hydroxethyl)urea, N-(2-hydroxyethyl)urea] the “acid protease activity (fluorescence) with respect to the control” value (from here on “acid protease activity (fluorescence)”) [1] was “significant increase in the activity” and the “acid protease activity (fluorescence)” value (4M in 0.1M acetate buffer pH 5.0, whatever the time studied) was “marked decrease in the activity”.
In the case of NC(N)=O [Urea, urea], the “acid protease activity (fluorescence)” value [1] is reported as “slightly activating effect on the acid proteases up to two hours”.
